These results are taken from ChEMBL document CHEMBL2073808, “P-glycoprotein inhibition by the multidrug resistance-reversing agent MS-209 enhances bioavailability and antitumor efficacy of orally administered paclitaxel” (Cancer Chemother Pharmacol, 2002).

The target in the test is ATP-dependent translocase ABCB1 (Homo sapiens, UniProt P08183). Put plainly: TP_TRANSPORTER: inhibition of Taxol transepithelial transport (basal to apical) in Caco-2 cells. The test is classed as functional, cell-based.
ATP-dependent translocase ABCB1, sequence (P08183 whole entry): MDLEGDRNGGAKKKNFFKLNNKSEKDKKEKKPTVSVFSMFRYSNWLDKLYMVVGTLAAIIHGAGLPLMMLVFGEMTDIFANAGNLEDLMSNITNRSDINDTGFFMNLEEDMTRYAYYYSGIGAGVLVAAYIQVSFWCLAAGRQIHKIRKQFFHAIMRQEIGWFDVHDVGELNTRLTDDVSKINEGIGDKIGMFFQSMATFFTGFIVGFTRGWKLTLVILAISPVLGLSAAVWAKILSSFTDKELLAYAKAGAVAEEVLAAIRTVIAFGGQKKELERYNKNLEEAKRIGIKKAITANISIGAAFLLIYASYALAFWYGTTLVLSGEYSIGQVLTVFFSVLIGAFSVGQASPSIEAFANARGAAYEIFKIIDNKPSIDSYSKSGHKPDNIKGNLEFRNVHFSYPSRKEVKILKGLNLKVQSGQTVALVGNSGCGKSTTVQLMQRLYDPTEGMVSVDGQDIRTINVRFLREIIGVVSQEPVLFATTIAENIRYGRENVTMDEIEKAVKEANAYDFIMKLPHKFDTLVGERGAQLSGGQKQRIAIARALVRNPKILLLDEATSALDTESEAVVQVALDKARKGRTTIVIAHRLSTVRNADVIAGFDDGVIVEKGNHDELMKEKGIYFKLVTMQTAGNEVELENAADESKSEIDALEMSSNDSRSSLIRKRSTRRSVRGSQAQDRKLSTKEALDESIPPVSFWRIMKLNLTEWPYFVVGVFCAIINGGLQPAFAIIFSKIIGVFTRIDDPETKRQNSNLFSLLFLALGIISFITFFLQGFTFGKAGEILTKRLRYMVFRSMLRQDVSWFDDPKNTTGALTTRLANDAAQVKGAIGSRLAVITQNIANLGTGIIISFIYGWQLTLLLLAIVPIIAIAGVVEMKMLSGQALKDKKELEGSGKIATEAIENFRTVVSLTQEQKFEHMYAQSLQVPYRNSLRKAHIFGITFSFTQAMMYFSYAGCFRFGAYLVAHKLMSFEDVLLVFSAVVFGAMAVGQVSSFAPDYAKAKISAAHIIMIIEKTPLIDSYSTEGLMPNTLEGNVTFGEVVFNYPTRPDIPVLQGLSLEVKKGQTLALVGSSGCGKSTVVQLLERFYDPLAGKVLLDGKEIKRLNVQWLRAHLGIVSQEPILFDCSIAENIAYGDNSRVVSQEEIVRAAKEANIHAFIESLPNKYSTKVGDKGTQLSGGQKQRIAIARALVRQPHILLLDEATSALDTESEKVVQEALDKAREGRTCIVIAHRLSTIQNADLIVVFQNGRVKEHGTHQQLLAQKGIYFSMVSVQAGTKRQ

SMILES strings stand for the structures.

In turn, `O=C(C(c1ccccc1)c1ccccc1)N1CCN(C[C@@H](O)COc2cccc3ncccc23)CC1` had a Ki of 0.4 µM.

By Ki is commonly meant a measure of affinity in units of concentration, obtained from inhibition or displacement. The low end stands for a stronger hold on the target, the high end for a looser hold on the target.
